According to US11807644B2 (PMV Pharmaceuticals, Inc., priority 2020, dated 2023):

Each compound was assayed against T1, recombinant His-tag Y220C p53 DBD protein (Homo sapiens, UniProt P04637, Y220C) (assay: In vitro DNA binding activity assay (TR-FRET): binding of His-tag Y220C p53 DBD to biotin-labeled consensus DNA). Details: SC150 = concentration to increase DNA binding by […], His-tag Y220C p53 DBD, biotin-labeled consensus DNA.
T1 construct: recombinant His-tag Y220C p53 DBD protein (amino acids #˜94-312)
Type: biochemical

Row | Structure (SMILES) | Y220C SC150 (μM)
1 | CN1CCC(Nc2cccc3c2cc(-c2nnc(CNc4cn[nH]c4)s2)n3CC(F)(F)F)CC1 [Compound 82B, N-(1-methylpiperidin-4-yl)-2-(5-{[(1H-pyrazol-4-yl)amino]methyl}-1,3,4-thiadiazol-2-yl)-1-(2,2,2-trifluoroethyl)-1H-indol-4-amine] | ** (** = 0.1 μM ≤ SC150 < 0.5 μM)
2 | CN1CCC(Nc2cccc3c2cc(-c2noc(CNC(=O)c4ccc(Cl)cc4)n2)n3CC(F)(F)F)CC1 [Compound 148B, 4-chloro-N-[(3-{4-[(1-methylpiperidin-4-yl)amino]-1-(2,2,2-trifluoroethyl)-1H-indol-2-yl}-1,2,4-oxadiazol-5-yl)methyl]benzamide] | * (* = 0 μM ≤ SC150 < 0.1 μM)
3 | CC(C)n1cnc(C(=O)NCc2nc(-c3cc4c(N[C@@H]5CCN(C)C[C@@H]5F)cccc4n3CC(F)(F)F)no2)c1 [Compound 232B, N-{[3-(4-{[(3S,4R)-3-fluoro-1-methylpiperidin-4-yl]amino}-1-(2,2,2-trifluoroethyl)-1H-indol-2-yl)-1,2,4-oxadiazol-5-yl]methyl}-1-(propan-2-yl)-1H-imidazole-4-carboxamide] | * (* = 0 μM ≤ SC150 < 0.1 μM)
4 | CN1CC[C@@H](Nc2cccc3c2cc(-c2noc(CNC(=O)c4cc5ccccn5c4)n2)n3CC(F)(F)F)[C@@H](F)C1 [Compound 196B, N-{[3-(4-{[(3S,4R)-3-fluoro-1-methylpiperidin-4-yl]amino}-1-(2,2,2-trifluoroethyl)-1H-indol-2-yl)-1,2,4-oxadiazol-5-yl]methyl}indolizine-2-carboxamide] | * (* = 0 μM ≤ SC150 < 0.1 μM)
5 | Cn1cc(C(=O)NCc2nc(-c3cc4c(N[C@@H]5CCN(C(C)(C)C)C[C@@H]5F)cccc4n3CC(F)(F)F)no2)cn1 [Compound 405B, N-{[3-(4-{[(3S,4R)-1-tert-butyl-3-fluoropiperidin-4-yl]amino}-1-(2,2,2-trifluoroethyl)-1H-indol-2-yl)-1,2,4-oxadiazol-5-yl]methyl}-1-methyl-1H-pyrazole-4-carboxamide] | * (* = 0 μM ≤ SC150 < 0.1 μM)
6 | CN1CCC(Nc2cccc3c2cc(-c2ncc(CNC(=O)C4CC4)s2)n3CC(F)(F)F)CC1 [Compound 94B, N-[(2-{4-[(1-methylpiperidin-4-yl)amino]-1-(2,2,2-trifluoroethyl)-1H-indol-2-yl}-1,3-thiazol-5-yl)methyl]cyclopropanecarboxamide] | * (* = 0 μM ≤ SC150 < 0.1 μM)
7 | CN1CCC(Nc2cccc3c2cc(-c2nnc(CNc4ccccc4)o2)n3CC(F)(F)F)CC1 [Compound 108B, N-(1-methylpiperidin-4-yl)-2-{5-[(phenylamino)methyl]-1,3,4-oxadiazol-2-yl}-1-(2,2,2-trifluoroethyl)-1H-indol-4-amine] | ** (** = 0.1 μM ≤ SC150 < 0.5 μM)
8 | C[C@@H]1CN(C)CC[C@@H]1Nc1cccc2c1cc(-c1noc(CNC(=O)c3ccc(C(C)(C)O)s3)n1)n2CC(F)(F)F (stereo in doubt) [Compound 515B, N-{[3-(4-{[(3R,4S)-1,3-dimethylpiperidin-4-yl]amino}-1-(2,2,2-trifluoroethyl)-1H-indol-2-yl)-1,2,4-oxadiazol-5-yl]methyl)-5-(2-hydroxypropan-2-yl)thiophene-2-carboxamide] | * (* = 0 μM ≤ SC150 < 0.1 μM)
9 | CN(Cc1nc(-c2cc3c(N[C@@H]4CCNC[C@@H]4F)cccc3n2CC(F)(F)F)no1)c1cn[nH]c1 (racemic) [Compound 191B, (+/−)-N-[(3R,4S)-3-fluoropiperidin-4-yl]-2-(5-{[methyl(1H-pyrazol-4-yl)amino]methyl}-1,2,4-oxadiazol-3-yl)-1-(2,2,2-trifluoroethyl)-1H-indol-4-amine] | ** (** = 0.1 μM ≤ SC150 < 0.5 μM)

Same assay, conditions: concentration to increase DNA binding by […], incubated at either 27° C. or 29° C. for 60 min

Row | Structure (SMILES) | SC150 (μM)
10 | CN(Cc1ccc(-c2cc3c(NC4CCS(=O)(=O)CC4)cccc3n2CC(F)(F)F)cc1)C(=O)OC(C)(C)C [Compound 4A, tert-butyl N-[(4-{4-[(1,1-dioxo-1λ^6-thian-4-yl)amino]-1-(2,2,2-trifluoroethyl)-1H-indol-2-yl}phenyl)methyl]-N-methylcarbamate] | +++ (+++ = 5 μM ≤ SC150 < 10 μM)
